Results taken from publication PMC12123727 (BMC Cancer, 2025).

Test: Phase 1 plasma pharmacokinetics
Type: in vivo, human
Conditions: for increase of exposure (plasma concentration) with dose: dose range 40–80 mg BID; for AUC(0-t) / AUC(0-inf) / Cmax / half-life / Tmax / MRT last: human, plasma; for AUC(0-t): AUC0-t; for AUC(0-t) / AUC(0-inf) / Cmax: Mean ± SD; for AUC(0-inf): AUC0-∞; for half-life: T1/2, Median; for Tmax: Median; for MRT last: po
[1] = C1D7 compared to C1D1, 40–80 mg BID
[2] = oral, 40 mg, abexinostat continuous administration (BID, 4-h interval) on C1D1, 40 mg (n = 4)
[3] = oral, 40 mg, abexinostat continuous administration (BID, 4-h interval) on C1D7, 40 mg (n = 4)
[4] = oral, 60 mg, abexinostat continuous administration (BID, 4-h interval) on C1D1, 60 mg (n = 3)
[5] = oral, 60 mg, abexinostat continuous administration (BID, 4-h interval) on C1D7, 60 mg (n = 3)
[6] = oral, 80 mg, abexinostat continuous administration (BID, 4-h interval) on C1D1, 80 mg (n = 4)
[7] = oral, 80 mg, abexinostat continuous administration (BID, 4-h interval) on C1D7, 80 mg (n = 4)

What does the source list for `CN(C)Cc1c(C(=O)NCCOc2ccc(C(=O)NO)cc2)oc2ccccc12` [abexinostat, Abexinostat]?
average accumulation ratio for Cmax (RA-Cmax) [1]: 0.94–1.48; average accumulation ratio for the AUC (RA-AUC) [1]: 1.16–1.52; increase of exposure (plasma concentration) with dose: approximately dose-proportional; increase of exposure (plasma concentration) with dose (listed as Abexinostat): dose-proportional; AUC(0-t) [2]: 339 ± 90.9 ng·h/mL; AUC(0-t) [3]: 463 ± 32.5 ng·h/mL; AUC(0-inf) [2]: 361 ± 88.3 ng·h/mL; AUC(0-inf) [3]: 491 ± 43.7 ng·h/mL; Cmax [2]: 98.1 ± 27.6 ng/mL; Cmax [3]: 107 ± 16.3 ng/mL; half-life [2]: 3.69 h; half-life [3]: 4.84 h; Tmax [2]: 1 h; Tmax [3]: 1 h; AUC(0-t) [4]: 521 ± 60.6 ng·h/mL; AUC(0-t) [5]: 600 ± 53.8 ng·h/mL; AUC(0-inf) [4]: 563 ± 69.6 ng·h/mL; AUC(0-inf) [5]: 656 ± 72 ng·h/mL; Cmax [4]: 115 ± 24.2 ng/mL; Cmax [5]: 104 ± 26.9 ng/mL; half-life [4]: 6.28 h; half-life [5]: 6.53 h; Tmax (oral, 60 mg, abexinostat continuous administration (BID, 4-h interval) on C1D1, 60 mg (n = 3), abexinostat value footnoted: 0.5 h after second dose): 4.55 h; Tmax [5]: 0.48 h; AUC(0-t) [6]: 603 ± 104 ng·h/mL; AUC(0-t) [7]: 767 ± 140 ng·h/mL; AUC(0-inf) [6]: 625 ± 116 ng·h/mL; AUC(0-inf) [7]: 744 ± 132 ng·h/mL; Cmax [6]: 128 ± 25.3 ng/mL; Cmax [7]: 184 ± 27 ng/mL; half-life [6]: 5.13 h; half-life [7]: 5.03 h; Tmax (oral, 80 mg, abexinostat continuous administration (BID, 4-h interval) on C1D1, 80 mg (n = 4), abexinostat value footnoted: 0.97 h after second dose): 4.78 h; Tmax [7]: 2.74 h; MRT last (40 mg): 2.8 h; MRT last (60 mg): 6.97 h; MRT last (80 mg): 3.47 h; accumulation (on C1D7): slight accumulation; absorption (oral): rapidly absorbed
